Laboratory results reported in patent US20180084784A1, “METHODS AND COMPOSITIONS FOR CONTROLLING FUNGUS AND FUNGAL SPORES AND IMPROVING PLANT QUALITY” (BAYER CROPSCIENCE LP, priority 2016, published 2018).
Like-named read-outs stand apart in the source and are kept apart here.

Columns and labels:
[1] = test system: Pythium aphanidermatum zoospores
Protocol: Tests were conducted on fescue leaf blades. […] Two agar plugs containing Pythium aphanidermatum mycelium were placed in the jar containing the fescue leaves and allowed to incubate for 5 days.
A 1.0 ml aliquot was removed from each treatment and streaked onto potato dextrose agar. […] After five days the plates were examined for Pythium growth.

[2] = test system: Pythium aphanidermatum zoospores; test: Example 6: enzyme and hydrogen peroxide, alone and combined; assay type: cell-based
Protocol: (§1) Tests were conducted on fescue leaf blades. […] Two agar plugs containing Pythium aphanidermatum mycelium were placed in the jar containing the fescue leaves and allowed to incubate for 7 days.
(§2) A 1.0 ml aliquot was removed from each treatment and streaked onto potato dextrose agar.

[3] = test system: Pythium aphanidermatum zoospores; test: Example 8: enzyme and hydrogen peroxide, alone and combined; assay type: cell-based
Protocol: as §1, §2

[4] = test system: Pythium aphanidermatum zoospores; test: Example 3: hydrogen peroxide alone and hydrolase enzyme alone, 12 days incubation; assay type: cell-based
Protocol: Tests were conducted on fescue leaf blades. […] Two agar plugs containing Pythium aphanidermatum mycelium were placed in the jar containing the fescue leaves and allowed to incubate for 12 days. Ten jars were used in total. […] Each of these jars was subject to the following hydrogen peroxide treatments: […] The remaining five jars were used for testing the effect of hydrolase enzyme alone. Each of these jars was subject to the following enzyme treatments: […] (2) 0.016% enzyme v/v concentration; (3) 0.0016% enzyme v/v concentration; […]

[5] = test system: Pythium aphanidermatum zoospores; test: Example 7: enzyme and hydrogen peroxide, confirmation of Example 6
Protocol: Tests were conducted on fescue leaf blades. Five one-inch long fescue leaf blades were placed in 100 ml water in a 250 ml jar and sterilized for 2 consecutive days for 20 min. Two agar plugs containing Pythium aphanidermatum mycelium were placed in the jar containing the fescue leaves and allowed to incubate for 7 days.
A 1.0 ml aliquot was removed from each treatment and streaked onto potato dextrose agar. […] After three days the plates were examined for Pythium growth.

[6] = test system: Pythium aphanidermatum zoospores; test: Example 5: enzyme and hydrogen peroxide, alone and combined; assay type: cell-based
Protocol: as §1, §2

[7] = test system: Pythium aphanidermatum zoospores; test: Example 4: hydrogen peroxide alone and enzyme alone, 8 days incubation; assay type: cell-based
Protocol: Tests were conducted on fescue leaf blades. […] Eleven jars were used in total. […] The remaining six jars were used for testing the effect of hydrolase enzyme alone. Each of these jars was subject to the following enzyme treatments: (1) untreated; (2) 0.16% enzyme v/v concentration; (3) 0.088% enzyme v/v concentration; […] (5) 0.0142% enzyme v/v concentration; and (6) 0.0124% enzyme v/v concentration.

[8] = test system: Pythium aphanidermatum zoospores; test: Example 9: enzyme and hydrogen peroxide, alone and combined; assay type: cell-based
Protocol: as §1
A 1.0 mL aliquot was removed from each treatment and streaked onto potato dextrose agar.

[9] = 0.0003% hydrogen peroxide v/v concentration
[10] = 0.003% hydrogen peroxide v/v concentration
[11] = 0.03% hydrogen peroxide v/v concentration
[12] = 0.014% hydrogen peroxide v/v concentration
[13] = 0.016% hydrogen peroxide v/v concentration
[14] = 0.018% hydrogen peroxide v/v concentration
[15] = 0.02% hydrogen peroxide v/v concentration
[16] = 0.006% hydrogen peroxide v/v concentration
[17] = 0.012% hydrogen peroxide v/v concentration

OO [hydrogen peroxide]
% Reduction of Pythium [1, 9]: 0%
Number of plates (4 reps) with Pythium growth after 5 days [1, 9]: 4
% Reduction of Pythium [1, 10]: 0%
Number of plates (4 reps) with Pythium growth after 5 days [1, 10]: 4
% Reduction of Pythium [1, 11]: 75%
Number of plates (4 reps) with Pythium growth after 5 days [1, 11]: 1
% Reduction of Pythium ([1]; 0.3% hydrogen peroxide v/v concentration): 100%
% Reduction of Pythium ([1]; 1.5% hydrogen peroxide v/v concentration): 100%
% of Potato Dextrose Sugar Agar Plate Covered with Pythium [2, 12]: 17.5%
Number of plates (4 reps) with Pythium growth after 3 days [2, 12]: 1
% of Potato Dextrose Sugar Agar Plate Covered with Pythium [2, 13]: 10%
Number of plates (4 reps) with Pythium growth after 3 days [2, 13]: 1
% of Potato Dextrose Sugar Agar Plate Covered with Pythium [2, 14]: 17.5%
Number of plates (4 reps) with Pythium growth after 3 days [2, 14]: 1
% of Potato Dextrose Sugar Agar Plate Covered with Pythium [3, 12]: 90%
Number of plates (4 reps) with Pythium growth after 3 days [3, 12]: 4
% of Potato Dextrose Sugar Agar Plate Covered with Pythium [3, 15]: 56.3%
Number of plates (4 reps) with Pythium growth after 3 days [3, 15]: 4
% of Potato Dextrose Sugar Agar Plate Covered with Pythium [4, 10]: 100%
Number of plates (4 reps) with Pythium growth after 3 days [4, 10]: 4
% of Potato Dextrose Sugar Agar Plate Covered with Pythium [4, 16]: 50-90%
Number of plates (4 reps) with Pythium growth after 3 days [4, 16]: 4
% of Potato Dextrose Sugar Agar Plate Covered with Pythium [4, 17]: <50%
Number of plates (4 reps) with Pythium growth after 3 days [4, 17]: 4
% of Potato Dextrose Sugar Agar Plate Covered with Pythium [4, 11]: 0%
Number of plates (4 reps) with Pythium growth after 3 days [4, 11]: 0
Pythium growth on plates ([4]; all tested concentrations of hydrogen peroxide except 0.03% v/v): grew on all plates
% of Potato Dextrose Sugar Agar Plate Covered with Pythium [5, 12]: 72.5%
Number of plates (4 reps) with Pythium growth after 3 days [5, 12]: 4
% of Potato Dextrose Sugar Agar Plate Covered with Pythium [5, 13]: 38.8%
Number of plates (4 reps) with Pythium growth after 3 days [5, 13]: 4
% of Potato Dextrose Sugar Agar Plate Covered with Pythium [5, 14]: 85.8%
Number of plates (4 reps) with Pythium growth after 3 days [5, 14]: 4
% of Potato Dextrose Sugar Agar Plate Covered with Pythium [6, 10]: 100%
Number of plates (4 reps) with Pythium growth after 3 days [6, 10]: 4
% of Potato Dextrose Sugar Agar Plate Covered with Pythium [6, 12]: 71.25%
Number of plates (4 reps) with Pythium growth after 3 days [6, 12]: 4
% of Potato Dextrose Sugar Agar Plate Covered with Pythium [7, 17]: 36.25%
% of Potato Dextrose Sugar Agar Plate Covered with Pythium [7, 12]: 60%
% of Potato Dextrose Sugar Agar Plate Covered with Pythium [7, 13]: 0%
% of Potato Dextrose Sugar Agar Plate Covered with Pythium [7, 14]: 0%
% of Potato Dextrose Sugar Agar Plate Covered with Pythium [8, 12]: 100%
Number of plates (4 reps) with Pythium growth after 3 days [8, 12]: 4
% of Potato Dextrose Sugar Agar Plate Covered with Pythium [8, 13]: 63.75%
Number of plates (4 reps) with Pythium growth after 3 days [8, 13]: 4
% of Potato Dextrose Sugar Agar Plate Covered with Pythium [8, 14]: 91.25%
Number of plates (4 reps) with Pythium growth after 3 days [8, 14]: 4
% of Potato Dextrose Sugar Agar Plate Covered with Pythium [8, 15]: 25%
Number of plates (4 reps) with Pythium growth after 3 days [8, 15]: 4
